{"source": "patent US20220305020A1", "about": "“THE USE OF PARAXANTHINE TO REDUCE EXERCISE-INDUCED MENTAL FATIGUE” (Ingenious Ingredients, LP, priority 2021, published 2022)", "key": {"trained runners [1]": {"test_system": "trained runners", "assay": "Berg-Wisconsin Card Sorting Test (BCST) before and after a mentally fatiguing 10-km run", "type": "in vivo, human", "details": "200 mg oral; after 10-km run compared to pre-exhaustive exercise", "experimental": "(§1) Trained runners from local running and triathlon clubs and races were recruited to participate in this study. Cognitive performance was assessed prior and after a mentally fatiguing endurance run. Eligibility criteria included healthy trained runners or triathletes between 18-40 years of age, current (>6 months) history of run training, and documented evidence that they averaged 8 minute/mile or less running pace during a recent competition (e.g., completing a 5-km road race or marathon). Qualified runners were invited to attend a familiarization session which provided an overview of the study and participants informed consent to participate in the study. A total of 32 individuals responded to study advertisements and were assessed for eligibility, 28 completed a familiarization session, 13 met eligibility requirements, agreed to participant in the study and were randomized into treatments. 1 subject dropped out of the study due to not complying with the study protocol. 12 subjects (11 males, 1 female) ultimately finished the trial. Volunteers visited the lab a total of five times including one familiarization session and four experimental sessions. During the familiarization session, participants were explained the study protocol, provided informed consent, answered a medical questionnaire, and had height, weight, resting heart rate, and resting blood pressure. Males then had body composition determined using dual energy X-ray absorptiometry (DXA) while females took a urine pregnancy test prior to the DXA scan to verify they were not pregnant. Participants then took each cognitive function test three times to familiarize them to the tests and establish test reliability. Volunteers practiced running on the treadmill to be used in the study at race pace. Once completed, the participants then performed a graded maximal cardiopulmonary (VO2 peak) treadmill test to determine peak heart rate and aerobic capacity. Participants were also asked to maintain usual eating habits and avoid new dietary supplements for the duration of the study. Participants were also asked to prepare for each testing session as they would a 10-km road race and refrain from vigorous physical activity, alcohol intake, and over-the-counter medications for 24 hours as well as fast for 8-12 hours prior to reporting to the lab. […] Upon arriving at the lab, participants had weight, resting heart rate, and blood pressure determined. Participants then completed a side effects questionnaire, performed two cognitive function tests, the Psychomotor Vigilance Task Test (PVTT), a test that objectively assesses fatigue-related changes in alertness, and the Berg-Wisconsin Card Sorting Test (BCST), donated a fasting blood sample, and then ingested 1 of 4 randomly assigned oral supplements (PRE). Supplements were administered in a double blind, randomized, and crossover manner using a Balanced Latin Square method to counterbalance the order of treatment administration. Treatments included (1) 400 mg of placebo (PL, wheat flour, Shandong Bailong Chuangyuan Bio-tec Co. Ltd., Dezhou, China); (2) 200 mg of PL+200 mg of Caffeine (CSPC Innovation Pharmaceutical Co. Ltd., Shi Jiazhuang, China); (3) 200 mg of PL+200 mg of […], Ingenious Ingredients, L.P. Lewisville, Tex., USA) or (4) 200 mg CA+200 mg of PX (CA+PX). Supplements were prepared using good manufacturing practices and certified for content. Supplements were the same size and appearance and packaged in generically labeled bottles for administration in a double-blind manner. Participants ingested one capsule with 8-ounces of water of the assigned treatment. Participants then rested for 15-minutes and repeated these tests. Volunteers then performed a 10-km run at their self-determined pace. Heart rate was obtained every kilometer during the run. Once completed, participants donated a venous blood sample. Participants then completed the cognitive function tests and the side effects questionnaire. […]"}, "Male, 51": {"test_system": "Male, 51", "assay": "Uchida-Kraepelin test (UKT), serial calculation test of mental fatigue", "type": "in vivo, human", "details": "one subject; for increase of mean performance during the first 15-minutes of UKT / mental fatigue (gradual decrease in performance) during the second 15-minutes of UKT: 200 mg of paraxanthine or 200 ng of caffeine", "experimental": "[…], consumed 200 mg of paraxanthine or […] or placebo, separated by one-week wash-out, prior to performing a serial calculation test, the Uchida-Kraepelin test (UKT), that is designed to measure mental fatigue. The test has been standardized and is widely used in clinical psychology, psychiatry, and occupational mental health practice. In this test, a subject is instructed to perform serial calculation of random numbers printed on a paper for 15 minutes. After a 5-minute rest, another 15 minutes of calculations are performed. The test subject is instructed to compute as many calculations as possible. Performance is assessed by 1-minute intervals."}, "trained runners [2]": {"test_system": "trained runners", "assay": "Psychomotor Vigilance Task Test (PVTT) before and after a mentally fatiguing 10-km run", "type": "in vivo, human", "experimental": "as §1"}, "BDNF": {"test_system": "BDNF", "assay": "BDNF levels in young and old rats after paraxanthine supplementation", "type": "in vivo"}, "catalase": {"test_system": "catalase", "assay": "Catalase levels in young and old rats after paraxanthine supplementation", "type": "in vivo"}, "glutathione": {"test_system": "glutathione", "assay": "Glutathione levels in young and old rats after paraxanthine supplementation", "type": "in vivo"}, "[3]": {"details": "200 mg oral, compared to pre-exhaustive exercise"}, "[4]": {"details": "old rats, high-dose paraxanthine group"}, "[5]": {"details": "old rats, low-dose paraxanthine group"}, "[6]": {"details": "young rats, high-dose paraxanthine group"}, "[7]": {"details": "young rats, low-dose paraxanthine group"}}}
{"compound": "Cn1c(=O)c2c(ncn2C)n(C)c1=O", "note": "[caffeine, reference compound]", "values": [{"measurement": "increase in number of correct responses in the BCST", "setting": "trained runners [1]", "value": "did not change"}, {"measurement": "increase in number of errors in the BCST", "setting": "trained runners [1]", "value": 19.4, "unit": "%"}, {"measurement": "increase in number of preservative errors (PAR rules) in the BCST", "setting": "trained runners [1]", "value": 23.3, "unit": "%"}, {"measurement": "increase in number of preservative errors in the BCST", "setting": "trained runners [1]", "value": 15.9, "unit": "%"}, {"measurement": "increase of mean performance during the first 15-minutes of UKT", "setting": "Male, 51", "value": 7, "unit": "%"}, {"measurement": "mental fatigue (gradual decrease in performance) during the second 15-minutes of UKT", "setting": "Male, 51", "value": "failed to prevent metal fatigue"}]}
{"compound": "Cn1c(=O)[nH]c2ncn(C)c2c1=O", "note": "[paraxanthine]", "values": [{"measurement": "increase in number of correct responses in the BCST", "setting": "trained runners [1]", "value": 5.7, "unit": "%"}, {"measurement": "reduction in number of errors in the BCST", "setting": "trained runners [1]", "value": 1.5, "unit": "%"}, {"measurement": "reduction in number of preservative errors (PAR rules) in the BCST", "setting": "trained runners [1]", "value": 10.6, "unit": "%"}, {"measurement": "reduction in number of preservative errors in the BCST", "setting": "trained runners [1]", "value": 4.6, "unit": "%"}, {"measurement": "greater improvement in reaction time compared to caffeine, trial 2", "setting": "trained runners [2]; 200 mg oral each, PVTT", "value": 25, "unit": "%"}, {"measurement": "greater improvement in reaction time compared to caffeine, trial 10", "setting": "trained runners [2]; 200 mg oral each, PVTT", "value": 44, "unit": "%"}, {"measurement": "greater improvement in reaction time compared to caffeine, trial 20", "setting": "trained runners [2]; 200 mg oral each, PVTT", "value": 12, "unit": "%"}, {"measurement": "improvement of reaction time in the PVT Test, early trials (trial 2)", "setting": "trained runners [2]; [3]", "value": 7.3, "unit": "%"}, {"measurement": "improvement of reaction time in the PVT Test, late trials (trial 20)", "setting": "trained runners [2]; [3]", "value": 10.9, "unit": "%"}, {"measurement": "improvement of reaction time in the PVT Test, middle trials (trial 10)", "setting": "trained runners [2]; [3]", "value": 10.9, "unit": "%"}, {"measurement": "increase of mean performance during the first 15-minutes of UKT", "setting": "Male, 51", "value": 15, "unit": "%"}, {"measurement": "mental fatigue (gradual decrease in performance) during the second 15-minutes of UKT", "setting": "Male, 51", "value": "prevented mental fatigue"}, {"measurement": "increase of mean performance during the second 15-minutes of UKT", "setting": "Male, 51; 200 mg of paraxanthine", "value": 21, "unit": "%"}, {"measurement": "BDNF levels", "setting": "BDNF; [4]", "value": "863.40 ± 35.21", "unit": "pg/mL"}, {"measurement": "BDNF levels", "setting": "BDNF; [5]", "value": "776.40 ± 18.54", "unit": "pg/mL"}, {"measurement": "BDNF levels", "setting": "BDNF; [6]", "value": "939.15 ± 42.34", "unit": "pg/mL"}, {"measurement": "BDNF levels", "setting": "BDNF; [7]", "value": "828.05 ± 35.03", "unit": "pg/mL"}, {"measurement": "catalase levels", "setting": "catalase; [4]", "value": "36.84±1.68", "unit": "U/mL"}, {"measurement": "catalase levels", "setting": "catalase; [5]", "value": "29.34±1.50", "unit": "U/mL"}, {"measurement": "catalase levels", "setting": "catalase; [6]", "value": "38.91±2.65", "unit": "U/mL"}, {"measurement": "catalase levels", "setting": "catalase; [7]", "value": "30.24±1.58", "unit": "U/mL"}, {"measurement": "glutathione levels", "setting": "glutathione; [4]", "value": "27.49 ± 0.84", "unit": "µg/mL"}, {"measurement": "glutathione levels", "setting": "glutathione; [5]", "value": "22.27 ± 1.00", "unit": "µg/mL"}, {"measurement": "glutathione levels", "setting": "glutathione; [6]", "value": "34.41 ± 1.97", "unit": "µg/mL"}, {"measurement": "glutathione levels", "setting": "glutathione; [7]", "value": "24.04 ± 1.74", "unit": "µg/mL"}]}
